PMC6934184, “Selective DNA-PKcs inhibition extends the therapeutic index of localized radiotherapy and chemotherapy” (The Journal of Clinical Investigation, 2019)

Biological target: T1, ABL1 (Homo sapiens, UniProt P00519)
T1 construct: purchased Thermo Fisher Scientific (Life Technologies) SelectScreen
Assay: SelectScreen Z'LYTE
Format: biochemical
How it was run: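 Compound tested in SelectScreen activity assays, Z'LYTE for CSF1R, CDK1/cyclin B and MAP2K6 and Adapta for CAMK1. ATP for CAMK1 was listed as 10, and Km app was used for CSF1R. Results are expressed in percent.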

T1 sequence (P00519 whole entry): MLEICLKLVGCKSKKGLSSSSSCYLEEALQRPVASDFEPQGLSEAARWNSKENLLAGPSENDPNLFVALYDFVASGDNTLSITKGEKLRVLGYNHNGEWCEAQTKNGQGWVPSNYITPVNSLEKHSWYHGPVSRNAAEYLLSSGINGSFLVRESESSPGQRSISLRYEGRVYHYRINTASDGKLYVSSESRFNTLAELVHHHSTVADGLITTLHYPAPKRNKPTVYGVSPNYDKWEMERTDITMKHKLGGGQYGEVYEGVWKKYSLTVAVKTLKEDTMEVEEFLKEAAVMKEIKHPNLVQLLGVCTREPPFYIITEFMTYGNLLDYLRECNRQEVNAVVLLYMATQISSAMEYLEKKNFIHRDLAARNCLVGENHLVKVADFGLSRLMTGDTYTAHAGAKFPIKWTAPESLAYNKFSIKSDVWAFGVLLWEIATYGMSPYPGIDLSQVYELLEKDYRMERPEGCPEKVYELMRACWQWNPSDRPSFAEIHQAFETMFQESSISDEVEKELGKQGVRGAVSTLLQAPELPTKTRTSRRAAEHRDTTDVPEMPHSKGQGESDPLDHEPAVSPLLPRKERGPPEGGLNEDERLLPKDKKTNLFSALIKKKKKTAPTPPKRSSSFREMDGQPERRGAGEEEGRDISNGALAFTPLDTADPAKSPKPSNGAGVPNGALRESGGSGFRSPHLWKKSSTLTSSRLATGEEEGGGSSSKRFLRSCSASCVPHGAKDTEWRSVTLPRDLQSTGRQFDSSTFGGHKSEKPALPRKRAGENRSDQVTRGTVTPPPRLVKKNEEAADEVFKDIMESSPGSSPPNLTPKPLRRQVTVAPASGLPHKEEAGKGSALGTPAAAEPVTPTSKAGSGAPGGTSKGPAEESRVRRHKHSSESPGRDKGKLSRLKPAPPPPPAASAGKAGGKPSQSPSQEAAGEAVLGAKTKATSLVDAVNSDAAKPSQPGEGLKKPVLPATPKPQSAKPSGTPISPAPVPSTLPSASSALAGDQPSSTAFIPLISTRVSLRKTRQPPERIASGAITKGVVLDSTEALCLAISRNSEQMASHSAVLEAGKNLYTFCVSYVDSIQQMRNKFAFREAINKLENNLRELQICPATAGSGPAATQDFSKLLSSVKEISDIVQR

CN(C(=O)CN1CCOCC1)c1ccc2sc3c(-c4cccc5c(=O)cc(N6CC7CCC(C6)O7)oc45)cccc3c2c1 [NU5455] showed an inhibition at 1 µM of 10.4%.
